Experimental data published in PubChem BioAssay AID330 (DTP/NCI, 2004).
Values joined by “and” are separate entries in the source; they are usually repeats but may differ in a detail not shown here. Equal values may be shown once. Toxic doses and inconclusive results are not listed. The calls were made as follows: active = survival T/C of 150% or more; inactive = T/C below 125% in these data.

Test system: P388 leukemia ip, CD2F1 mice, survival T/C
Experiment: NCI In Vivo Anticancer Drug Screen. Data for tumor model P388 Leukemia (intraperitoneal) in CD2F1 (CDF1) mice
Settings: endpoint: median survival time, higher = longer survival
Outline: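 Mice carrying the transplanted tumor received test compound or vehicle. Survival was recorded in each group, and the value is the treated-group measurement divided by that of the vehicle-treated control group.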

[1] = dose: 100.0 mg/kg/injection, schedule: Q01DX001 (ip), vehicle: Klucel (hydroxypropylcellulose) (HPC)
[2] = dose: 100.0 mg/kg/injection, schedule: Q01DX009 (ip), vehicle: saline with Tween-80
[3] = dose: 200.0 mg/kg/injection, schedule: Q01DX009 (ip), vehicle: saline with Tween-80
[4] = dose: 12.5 mg/kg/injection, schedule: Q01DX009 (ip), vehicle: Klucel (hydroxypropylcellulose) (HPC)
[5] = dose: 50.0 mg/kg/injection, schedule: Q01DX009 (ip), vehicle: saline
[6] = dose: 100.0 mg/kg/injection, schedule: Q01DX009 (ip), vehicle: saline
[7] = dose: 200.0 mg/kg/injection, schedule: Q01DX009 (ip), vehicle: saline
[8] = dose: 25.0 mg/kg/injection, schedule: Q01DX009 (ip), vehicle: saline with Tween-80
[9] = dose: 50.0 mg/kg/injection, schedule: Q01DX009 (ip), vehicle: saline with Tween-80
[10] = dose: 100.0 mg/kg/injection, schedule: Q04DX003 (ip), vehicle: saline
[11] = dose: 200.0 mg/kg/injection, schedule: Q04DX003 (ip), vehicle: saline
[12] = dose: 400.0 mg/kg/injection, schedule: Q04DX003 (ip), vehicle: saline
[13] = dose: 50.0 mg/kg/injection, schedule: Q04DX003 (ip), vehicle: saline with Tween-80
[14] = dose: 200.0 mg/kg/injection, schedule: Q04DX003 (ip), vehicle: saline with Tween-80

Measured: T/C

Nc1ncnc2c1c1c(=S)nc[nH]c1n2C1OC(CO)C(O)C1O (centres undefined)
active: dose: 25.0 mg/kg/injection, schedule: Q01DX009 (ip), vehicle: water 158 % of control | dose: 50.0 mg/kg/injection, schedule: Q01DX009 (ip), vehicle: water 165 % of control | dose: 100.0 mg/kg/injection, schedule: Q01DX009 (ip), vehicle: water 177 % of control

Cc1nnc2sc(C(F)(F)F)nn12
inactive: dose: 50.0 mg/kg/injection, schedule: Q01DX001 (ip), vehicle: Klucel (hydroxypropylcellulose) (HPC) 99 % of control | [1] 98 % of control | dose: 200.0 mg/kg/injection, schedule: Q01DX001 (ip), vehicle: Klucel (hydroxypropylcellulose) (HPC) 101 % of control

CCCCCCCCCC(=O)OC(C)C(=O)N(CCCC)CCCC (centres undefined)
inactive: [2] 110 % of control | [3] 102 % of control | dose: 400.0 mg/kg/injection, schedule: Q01DX009 (ip), vehicle: saline with Tween-80 106 % of control

C=CCNC(=O)c1cc(N2CC2)c([N+](=O)[O-])cc1[N+](=O)[O-]
inactive: [4] 91 % of control and 97 % of control

NC1=NC(c2ccc(O)cc2O)c2[nH]cnc2N1 (centres undefined)
inactive: [5] 99 % of control | [6] 100 % of control | [7] 97 % of control

COc1ccc(OC)c(N2C(=O)C=C(C)C2(O)CC#N)c1 (centres undefined)
inactive: dose: 6.25 mg/kg/injection, schedule: Q01DX009 (ip), vehicle: saline with Tween-80 100 % of control | dose: 12.5 mg/kg/injection, schedule: Q01DX009 (ip), vehicle: saline with Tween-80 95 % of control | [8] 98 % of control | [9] 98 % of control

Cc1ccc(NC(=S)SCc2ccc3c(c2)OCO3)cc1Br
inactive: [4] 122 % of control | dose: 25.0 mg/kg/injection, schedule: Q01DX009 (ip), vehicle: Klucel (hydroxypropylcellulose) (HPC) 102 % of control | dose: 50.0 mg/kg/injection, schedule: Q01DX009 (ip), vehicle: Klucel (hydroxypropylcellulose) (HPC) 120 % of control | dose: 50.0 mg/kg/injection, schedule: Q01DX009 (ip), vehicle: suspension in saline 104 % of control | dose: 100.0 mg/kg/injection, schedule: Q01DX009 (ip), vehicle: Klucel (hydroxypropylcellulose) (HPC) 115 % of control | dose: 100.0 mg/kg/injection, schedule: Q01DX009 (ip), vehicle: suspension in saline 111 % of control | dose: 200.0 mg/kg/injection, schedule: Q01DX009 (ip), vehicle: Klucel (hydroxypropylcellulose) (HPC) 116 % of control | dose: 200.0 mg/kg/injection, schedule: Q01DX009 (ip), vehicle: suspension in saline 104 % of control

Cc1ccc(NC(=O)Oc2ccc(Cl)cc2)c([N+](=O)[O-])c1
inactive: [9] 109 % of control | [2] 100 % of control | [3] 105 % of control

CC1=C(C(=O)Nc2ccc(C)cc2C)C(c2cccc([N+](=O)[O-])c2)C(C(=O)Nc2ccc(C)cc2C)=C(C)N1
inactive: dose: 7.5 mg/kg/injection, schedule: Q01DX005 (ip), vehicle: Klucel (hydroxypropylcellulose) (HPC) 100 % of control | dose: 15.0 mg/kg/injection, schedule: Q01DX005 (ip), vehicle: Klucel (hydroxypropylcellulose) (HPC) 94 % of control | dose: 30.0 mg/kg/injection, schedule: Q01DX005 (ip), vehicle: Klucel (hydroxypropylcellulose) (HPC) 98 % of control

COc1ccc(C(C)c2cc3c(cc2OCCO)OCO3)cc1OC (centres undefined)
inactive: dose: 50.0 mg/kg/injection, schedule: Q01DX005 (ip), vehicle: distilled water + Tween-80 97 % of control | dose: 100.0 mg/kg/injection, schedule: Q01DX005 (ip), vehicle: distilled water + Tween-80 93 % of control | dose: 200.0 mg/kg/injection, schedule: Q01DX005 (ip), vehicle: distilled water + Tween-80 97 % of control

CCCCCCCCCCCCSC1=CC(=O)C(OC)=C(OC)C1=O
inactive: dose: 0.78 mg/kg/injection, schedule: Q01DX009 (ip), vehicle: other 101 % of control | dose: 1.56 mg/kg/injection, schedule: Q01DX009 (ip), vehicle: other 108 % of control | dose: 3.13 mg/kg/injection, schedule: Q01DX009 (ip), vehicle: other 102 % of control | dose: 6.25 mg/kg/injection, schedule: Q01DX009 (ip), vehicle: other 108 % of control | dose: 6.25 mg/kg/injection, schedule: Q01DX030 (ip), vehicle: saline with Tween-80 101 % of control | dose: 10.0 mg/kg/injection, schedule: Q01DX030 (ip), vehicle: saline with Tween-80 108 % of control | dose: 12.5 mg/kg/injection, schedule: Q01DX009 (ip), vehicle: other 110 % of control | dose: 12.5 mg/kg/injection, schedule: Q01DX030 (ip), vehicle: saline with Tween-80 104 % of control and 108 % of control and 121 % of control | dose: 25.0 mg/kg/injection, schedule: Q01DX009 (ip), vehicle: other 118 % of control | dose: 25.0 mg/kg/injection, schedule: Q01DX030 (ip), vehicle: saline with Tween-80 105 % of control

O=NN(CCCl)C(=O)Oc1cc(Cl)c(Cl)cc1Cl
inactive: dose: 25.0 mg/kg/injection, schedule: Q01DX001 (ip), vehicle: Klucel (hydroxypropylcellulose) (HPC) 116 % of control | dose: 50.0 mg/kg/injection, schedule: Q01DX005 (ip), vehicle: Klucel (hydroxypropylcellulose) (HPC) 86 % of control
active: dose: 75.0 mg/kg/injection, schedule: Q01DX001 (ip), vehicle: Klucel (hydroxypropylcellulose) (HPC) 154 % of control and 250 % of control | [1] 258 % of control

N#CC(C(=O)C(=O)Nc1cccc(C(F)(F)F)c1)c1ccc(Cl)cc1Cl (centres undefined)
inactive: dose: 60.0 mg/kg/injection, schedule: Q01DX005 (ip), vehicle: saline with Tween-80 94 % of control | dose: 120.0 mg/kg/injection, schedule: Q01DX005 (ip), vehicle: saline with Tween-80 91 % of control | dose: 240.0 mg/kg/injection, schedule: Q01DX005 (ip), vehicle: saline with Tween-80 92 % of control

C=C(C)C(=O)NC(N)=NC#N
inactive: dose: 60.0 mg/kg/injection, schedule: Q01DX005 (ip), vehicle: Klucel (hydroxypropylcellulose) (HPC) 122 % of control

CCSC(C/C=C/c1ccccc1)S(=O)CC (centres undefined)
inactive: [10] 99 % of control | [11] 107 % of control | [12] 105 % of control

C=C1C(=O)C23C(OC(=O)CCCCCCCCC)C1CCC2C12COC3(O)C(O)C1C(C)(C)CCC2O (centres undefined)
inactive: dose: 3.75 mg/kg/injection, schedule: Q01DX009 (ip), vehicle: saline with Tween-80 103 % of control | dose: 7.5 mg/kg/injection, schedule: Q01DX009 (ip), vehicle: saline with Tween-80 98 % of control | dose: 15.0 mg/kg/injection, schedule: Q01DX009 (ip), vehicle: saline with Tween-80 96 % of control | dose: 30.0 mg/kg/injection, schedule: Q01DX009 (ip), vehicle: saline with Tween-80 106 % of control

C=C1C(=O)N2c3ccccc3C(C)(C)C2(S)C(=O)N1C (centres undefined)
inactive: [5] 102 % of control | [6] 100 % of control | [7] 100 % of control

CCCC(=O)OCC1OC(n2cnc3c(=S)nc(N)[nH]c32)C(OC(=O)CCC)C1OC(=O)CCC (centres undefined)
active: dose: 10.0 mg/kg/injection, schedule: Q04DX003 (ip), vehicle: saline with Tween-80 155 % of control | dose: 20.0 mg/kg/injection, schedule: Q04DX003 (ip), vehicle: saline with Tween-80 165 % of control | dose: 25.0 mg/kg/injection, schedule: Q04DX003 (ip), vehicle: saline with Tween-80 150 % of control
inactive: dose: 1.25 mg/kg/injection, schedule: Q04DX003 (ip), vehicle: saline with Tween-80 100 % of control | dose: 2.5 mg/kg/injection, schedule: Q04DX003 (ip), vehicle: saline with Tween-80 104 % of control | dose: 5.0 mg/kg/injection, schedule: Q04DX003 (ip), vehicle: saline with Tween-80 113 % of control | [8] 122 % of control | [9] 90 % of control | [13] 116 % of control | [14] 118 % of control

CCCCNC1=CC(=O)c2ccccc2C1=O
inactive: [13] 99 % of control | dose: 100.0 mg/kg/injection, schedule: Q04DX003 (ip), vehicle: saline with Tween-80 92 % of control | [14] 88 % of control

O=C(NC1CCCCC1)NS(=O)(=O)c1ccc(CCNC(=O)c2cccc3c2OCC3)cc1
inactive: [9] 100 % of control | [2] 99 % of control | [3] 98 % of control

CCn1c(=NC(=O)c2ccccc2O)sc2ccccc21
inactive: dose: 100.0 mg/kg/injection, schedule: Q01DX001 (ip), vehicle: saline 98 % of control and 95 % of control | dose: 200.0 mg/kg/injection, schedule: Q01DX001 (ip), vehicle: saline 103 % of control and 95 % of control | dose: 400.0 mg/kg/injection, schedule: Q01DX001 (ip), vehicle: saline 100 % of control and 103 % of control

CC1(C)OS(=O)(=O)C=C1Br
inactive: [10] 96 % of control | [11] 110 % of control | [12] 103 % of control
